Test results taken from patent US10844102B2, “Peptides, compositions, and methods for stimulating subcutaneous adipogenesis” (The Regents of the University of California, priority 2014, dated 2020).
Read-outs that look alike come from different tables or passages of the source.

How the values were obtained:
[1] = system: mammary fat pads of aged female rats; assay: In vivo adipogenesis in mammary fat pads of aged female rats (microCT); design: species or system rat; conditions: eight-month-old female rats, 100 μg peptide in 100 μl collagen gel, 7 days, versus collagen only
Method: Peptides were also tested for their ability to stimulate adipogenesis in mammary fat pads of aged (8 month old) female rats in vivo. Mammary fat pads are rich in adipocyte progenitor cells.
Eight-month-old female Sprague Dawley rats (retired breeders) were injected with 100 μl collagen gel (Vitrogen) containing 100 μg peptide into the fourth right mammary fat pad, as depicted in FIG. 10. […] The collagen and peptides were injected at the top of the ROI nearest the nipple. The collagen and peptide diffuse into the fat pad following injection and active peptides target RHAMM-positive progenitor cells present in the fat pad. Collagen alone was injected into the fourth left mammary fat pad as a negative control.
Following injection of the collagen and peptide or collagen alone, animals were maintained on rat chow and water for 7 days and then euthanized. Micro-computed tomography (microCT) imaging of the […] was performed on animals using a Locus Ultra scanner (GE Healthcare, London, ON, Canada). The animals were imaged ex vivo with an X-ray tube voltage of 80 kV and a tube current of 55 mA. Nine hundred projections of data were acquired at an angular increment of 0.4 degrees around the rat in an exposure time of 16 ms. The data were then reconstructed into a 3D volume image with a voxel size of 154 μm. The subcutaneous mammary fat measured in 10×5×3 mm rectangular area (the region of interest (ROI)) below the nipple, avoiding measurement of underlying visceral fat (see the region labeled “fat pad” in FIG. 11). The amount of fat in the ROI was calculated as mass (mg) per ROI.

[2] = system: adipogenesis; conditions: earlier reports, WO 2014/082042 and background; cited from earlier work
[3] = system: pre-adipocyte stem cells; assay: Adipogenic effects in pre-adipocyte stem cells in culture; format: cell-based
[4] = system: nude guinea pig; assay: Nude guinea pig model of adipogenesis; conditions: in vivo
[5] = system: bone marrow mesenchymal stem cells; assay: Adipogenesis in mesenchymal stem cells or papillary fibroblasts, replacement of insulin; format: cell-based; conditions: depending upon the screening assay used
Method: For example, in bone marrow mesenchymal stem cells, a maximum adipogenic effect was obtained at 1-5 μg of peptide B (SEQ ID NO: 2), depending upon the screening assay used.

[6] = system: dermis of aged rats; assay: Rat dermal skin model of adipogenesis (injection into the dermis of aged rats); format: in vivo; conditions: for adipogenic effects in rat skin: injected into the dermis of aged rats / rat skin
[7] = system: adipogenesis; assay: Adipogenic activity of peptides and peptide fragments, assay not specified; format: cell-based
Method: In the second approach, a series of truncations and alanine mutagenesis on peptide B were performed in order to identify the smallest active sequence. Fragments of peptide B were prepared and assayed for adipogenesis. First, fragments corresponding to the two halves of peptide B were prepared (KLKDENS (SEQ ID NO: 8) and SQLKSEVSK (SEQ ID NO: 13)).

[8] = earlier reports, background and U.S. Pat. No. 6,271,344; cited from earlier work
[9] = Hyaluronan binding (random phage library screen); conditions: unbiased screen of 15-mer random phage libraries
Method: Two approaches were used to identify additional adipogenic peptides and to identify the key adipogenic sequences. […] Thus, in the first approach, an unbiased screen was performed to identify hyaluronan-binding peptides using 15-mer random phage libraries. Peptide sequences identified in this screen were sorted for: (a) their alignment to the HA binding region of RHAMM, and (b) their lack of alignment to the HA binding region of CD44.

[10] = system: adipogenesis in vivo; assay: Adipogenesis in vivo, model not specified

binding to hyaluronan (HA) [9] | Sequence | adipogenesis in vivo in mammary fat pads [1] | adipogenic activity [2] | adipogenic effects in pre-adipocyte stem cells in culture [3] | promoting adipogenesis in a nude guinea pig model [4] | amount of peptide giving a maximum adipogenic effect [5] | fat accumulation ([6]; 25-50 μg of peptide per injection site, rat dermal skin model) | adipogenic effects in rat skin [6] | adipogenic activity ([7]; assay not specified) | binding to hyaluronan (HA) [8] | adipogenesis in vivo [10] | adipogenesis in tissue culture ([7]; tissue culture)
 | KLKDENSQLKSEVSK (listed as Homo sapiens) [peptide B] | mammary fat pad enlargement | strongly adipogenic | adipogenic effects | effective in promoting adipogenesis | 1 to 5 µg | induced significant fat accumulation | adipogenic effects | adipogenic activity |  |  | 
hyaluronan binding peptide | STMMSRSHKTRSHHV [peptide P15-1] |  | is adipogenic | adipogenic effects |  |  |  | adipogenic effects |  | bind to hyaluronan | promotes adipogenesis | promotes adipogenesis
